Results on two compounds are retold here after US10906906B2, “Organic compounds” (INTRA-CELLULAR THERAPIES, INC., priority 2016, dated 2021).

For the test, the target named is μ (MOP) (h) receptor (Homo sapiens, UniProt P35372). Nature of the test: Cellular functional assay, μ (MOP) (h) antagonist effect (cAMP, HTRF). The format is cell-based. Conditions: human recombinant (CHO cells). The procedure:
The compounds are tested at several concentrations to determine their IC50 or EC50. Cellular agonist effects are calculated as percent of control response to a known reference agonist for each target and cellular antagonist effect is calculated as a percent inhibition of control reference agonist response for each target. The following assay is performed to determine the effect of the Compound of Formula II-B on the μ (MOP) (h) receptor: [table] The results are expressed as a percent of control agonist response: and as a percent inhibition of control agonist response: obtained in the presence of the Compound of Formula II-B or II-C. […] For the antagonists, the apparent dissociation constants (KB) are calculated using the modified Cheng Prusoff equation: [formula] where A=concentration of reference agonist in the assay, and E[…]=EC50 value of the reference agonist.

μ (MOP) (h) receptor, sequence (P35372 whole entry): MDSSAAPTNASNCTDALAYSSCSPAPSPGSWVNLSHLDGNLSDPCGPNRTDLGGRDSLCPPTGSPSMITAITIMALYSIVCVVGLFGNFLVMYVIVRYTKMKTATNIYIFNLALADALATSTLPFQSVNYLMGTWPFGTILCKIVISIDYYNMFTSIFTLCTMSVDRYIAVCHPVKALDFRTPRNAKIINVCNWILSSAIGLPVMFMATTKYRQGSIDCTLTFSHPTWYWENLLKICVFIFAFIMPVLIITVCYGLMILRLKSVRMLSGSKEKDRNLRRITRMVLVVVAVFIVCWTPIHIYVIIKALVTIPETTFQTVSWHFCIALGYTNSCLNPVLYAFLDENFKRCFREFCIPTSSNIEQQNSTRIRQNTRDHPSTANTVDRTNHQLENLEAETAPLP

The term IC50 denotes the midpoint of a concentration-inhibition curve. One may read the Kb as the affinity of an antagonist, worked out from how it opposes an agonist. As to `CN1C(=O)CN2c3c(cccc31)[C@@H]1CN(CCCc3n[nH]c4cc(F)ccc34)CC[C@@H]12` [Formula II-B], the IC50 (DAMGO (20 nM) stimulus, cAMP, 10 min @ 37° C.) is 1.3 µM. In addition, where the note is “modified Cheng Prusoff equation, DAMGO (20 nM), read-out: μ (MOP) (h) (antagonist effect) KB (apparent dissociation constant)”, the Kb worked out at 0.14 µM.
Consider `Fc1ccc2c(CCCN3CC[C@H]4[C@@H](C3)c3cccc5c3N4CCN5)n[nH]c2c1` [Formula II-C], for which the half-maximal inhibitory concentration (IC50) (unit inferred, highest concentration tested, DAMGO (20 nM)) is greater than 10 µM.
